IC50 data for 62 compounds are collected here from patent publication US8952169B2 (Genentech, Inc., priority 2012, dated 2015).

What is called IC50 is the concentration that gives 50% inhibition.

Chain of hNav1.7 (Q15858 whole entry, looked up): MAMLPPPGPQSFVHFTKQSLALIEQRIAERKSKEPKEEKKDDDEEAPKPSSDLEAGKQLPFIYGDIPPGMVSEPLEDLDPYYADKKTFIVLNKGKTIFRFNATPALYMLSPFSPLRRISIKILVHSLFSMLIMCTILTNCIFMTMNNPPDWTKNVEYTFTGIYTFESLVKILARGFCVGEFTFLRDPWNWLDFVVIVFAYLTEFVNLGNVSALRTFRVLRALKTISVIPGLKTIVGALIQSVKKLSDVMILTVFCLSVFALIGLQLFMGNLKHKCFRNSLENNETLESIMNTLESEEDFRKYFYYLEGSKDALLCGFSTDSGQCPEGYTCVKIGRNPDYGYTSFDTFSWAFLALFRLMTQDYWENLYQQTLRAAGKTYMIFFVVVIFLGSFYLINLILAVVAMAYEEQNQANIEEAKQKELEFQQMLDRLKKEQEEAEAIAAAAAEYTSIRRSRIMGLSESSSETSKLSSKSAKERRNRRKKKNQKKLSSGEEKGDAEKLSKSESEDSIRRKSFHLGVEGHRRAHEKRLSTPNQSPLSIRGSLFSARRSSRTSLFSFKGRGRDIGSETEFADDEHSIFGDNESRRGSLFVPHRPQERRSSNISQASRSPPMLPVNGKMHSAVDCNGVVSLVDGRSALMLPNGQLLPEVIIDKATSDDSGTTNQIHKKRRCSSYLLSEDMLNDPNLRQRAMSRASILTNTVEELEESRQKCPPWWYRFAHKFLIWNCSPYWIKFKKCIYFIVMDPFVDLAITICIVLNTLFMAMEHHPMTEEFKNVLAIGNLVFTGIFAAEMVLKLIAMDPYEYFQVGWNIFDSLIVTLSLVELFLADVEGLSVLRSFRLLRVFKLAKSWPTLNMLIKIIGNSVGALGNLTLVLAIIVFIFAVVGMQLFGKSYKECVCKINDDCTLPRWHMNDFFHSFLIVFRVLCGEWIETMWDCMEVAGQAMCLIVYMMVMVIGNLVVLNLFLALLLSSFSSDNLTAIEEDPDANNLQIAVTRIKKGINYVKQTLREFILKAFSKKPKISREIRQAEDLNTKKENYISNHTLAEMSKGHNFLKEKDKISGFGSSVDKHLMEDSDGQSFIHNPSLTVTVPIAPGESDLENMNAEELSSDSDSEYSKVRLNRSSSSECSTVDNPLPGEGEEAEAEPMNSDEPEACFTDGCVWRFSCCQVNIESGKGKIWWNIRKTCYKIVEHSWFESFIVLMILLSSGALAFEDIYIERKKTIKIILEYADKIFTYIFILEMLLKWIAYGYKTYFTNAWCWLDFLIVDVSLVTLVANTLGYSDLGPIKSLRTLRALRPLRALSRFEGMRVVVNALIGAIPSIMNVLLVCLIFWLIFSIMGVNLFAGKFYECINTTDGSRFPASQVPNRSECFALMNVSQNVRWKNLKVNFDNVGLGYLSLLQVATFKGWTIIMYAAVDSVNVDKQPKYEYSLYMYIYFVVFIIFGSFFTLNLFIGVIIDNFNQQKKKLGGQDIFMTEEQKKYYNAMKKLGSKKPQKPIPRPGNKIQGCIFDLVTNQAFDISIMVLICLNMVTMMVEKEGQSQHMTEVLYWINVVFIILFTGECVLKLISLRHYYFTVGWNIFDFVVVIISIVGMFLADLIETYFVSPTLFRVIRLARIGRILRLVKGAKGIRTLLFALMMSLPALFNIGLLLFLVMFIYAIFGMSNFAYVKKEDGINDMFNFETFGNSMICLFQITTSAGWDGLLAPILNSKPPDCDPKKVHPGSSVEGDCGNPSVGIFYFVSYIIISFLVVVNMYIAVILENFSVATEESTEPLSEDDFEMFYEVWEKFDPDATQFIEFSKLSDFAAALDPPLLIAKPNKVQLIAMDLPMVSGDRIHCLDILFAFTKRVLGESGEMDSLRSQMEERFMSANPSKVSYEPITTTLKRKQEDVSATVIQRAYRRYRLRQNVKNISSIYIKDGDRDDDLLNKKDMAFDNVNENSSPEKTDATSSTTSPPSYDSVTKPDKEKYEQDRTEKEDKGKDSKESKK
Chain of hNav1.7 (Q07699 whole entry partner, looked up): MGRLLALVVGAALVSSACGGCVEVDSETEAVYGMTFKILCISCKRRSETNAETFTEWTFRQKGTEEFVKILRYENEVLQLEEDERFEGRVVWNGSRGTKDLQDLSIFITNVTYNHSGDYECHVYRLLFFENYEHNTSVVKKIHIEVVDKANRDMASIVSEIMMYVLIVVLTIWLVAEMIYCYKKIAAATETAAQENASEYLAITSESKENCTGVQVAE

One experiment addresses hNav1.7 (Homo sapiens (Human), UniProt Q15858). Kind of experiment: Tritiated aryl sulfonamide binding to membranes from cells expressing hNav1.7 and the β1 subunit (competitive binding). The following applies: membranes with hNav1.7 and β1 subunit; [3H]compound displacement, 18 h, room temperature; read-out: NaV1.7 395 Memb Binding (IC50). Here is the method: Tritiated Aryl Sulfonamide Binding to Membranes Isolated from Cells that Heterologously Express hNav1.7 and the β1 Subunit
Preparation of membranes containing recombinantly expressed sodium channels: Frozen recombinant cell pellets were thawed on ice and diluted to 4 times the cell pellet weight with ice cold 50 mM Tris HCl, pH 7.4 buffer. The cell suspensions were homogenized on ice using a motorized glass dounce homogeniser. Homogenates were further diluted 8.4 times with ice cold 50 mM Tris HCl, pH 7.4 buffer and then centrifuged at 200×g at 4° C. for 15 min. The supernatants were collected and centrifuged at 10000×g at 4° C. for 50 min. The pellets were then re-suspended in 100 mM NaCl, 20 mM Tris HCl, pH 7.4 buffer containing 1% v/v protease inhibitors (Calbiochem) and re-homogenized on ice. The homogenized membranes were then processed through a syringe equipped with a 26 gauge needle. Protein concentrations were determined by Bradford Assay and the membranes were stored at −80° C.
Radioligand Binding Studies: Saturation experiments. A representative compound of formula (I) was tritiated. Three tritiums were incorporated in place of methyl hydrogens to generate [^3H]compound. Binding of this radioligand was preformed in 5 mL borosilicate glass test tubes at room temperature. Binding was initiated by adding membranes to increasing concentrations of [^3H]compound in 100 mM NaCl, 20 mM Tris HCl, pH 7.4 buffer containing 0.01% w/v bovine serum albumin (BSA) for 18 h. Non-specific binding was determined in the presence of 1 μM unlabelled compound. After 18 h, the reactants were filtered through GF/C glass fiber filters presoaked in 0.5% w/v polyethylene imine. […] [^3H]compound bound to filters was quantified by liquid scintillation counting.
Competitive binding experiments. Binding reactions were preformed in 96-well polypropylene plates at room temperature for 18 h. In 360 μL, membranes were incubated with 100 μM [^3H]compound and increasing concentrations of Test Compound. Non-specific binding was defined in the presence of 1 μM unlabelled compound. Reactions were transferred and filtered through 96-well glass fiber/C filter plates presoaked with 0.5% polyethylene imine. The filtered reactions were washed 5 times with 200 L ice cold buffer containing 0.25% BSA. Bound radioactivity was determined by liquid scintillation counting.
Data Analysis: For saturation experiments, non-specific binding was subtracted from total binding to provide specific binding and these values were recalculated in terms of pmol ligand bound per mg protein. Saturation curves were constructed and dissociation constants were calculated using the single site ligand binding model: Beq=(Bmax*X)/(X+Kd), where Beq is the amount of ligand bound at equilibrium, Bmax is the maximum receptor density, Kd is the dissociation constant for the ligand, and X is the free ligand concentration.
As for `[2H]C1([2H])C([2H])([2H])C([2H])([2H])C([2H])(COc2cc(F)c(C(=O)NS(C)(=O)=O)cc2Cl)C([2H])([2H])C1([2H])[2H]`, the IC50 worked out at 210 nM.
In the case of `O=C(NS(=O)(=O)N1CCOCC1)c1cc(C2CC2)c(O[C@H]2C3CC4CC2C[C@](Cl)(C4)C3)cc1F`, the IC50 worked out at 16 nM.
Same read-out and setting: under `CS(=O)(=O)NC(=O)c1cc(Cl)c(OCC2CC3CCC2C3)cc1F` (centres unmarked) stands 80 nM; under `O=C(NS(=O)(=O)CCO)c1cc(Cl)c(OCC23CC4CC(CC(C4)C2)C3)cc1F`, 130 nM; under `CC(C)(C)OC(=O)N1CCCC(COc2cc(F)c(C(=O)NS(C)(=O)=O)cc2F)C1` (centres unmarked), 9990 nM.
For `CCS(=O)(=O)NC(=O)c1cc(C2CC2)c(OCC23CC4CC(CC(C4)C2)C3)cc1F`, the IC50 was determined as 1 nM.
The same measure, in the same setting: the figure for `CNS(=O)(=O)NC(=O)c1cc(C2CC2)c(OCC2(C(F)(F)F)CCCCC2)cc1F` is 20 nM; for `CS(=O)(=O)NC(=O)c1cc(Cl)c(OCC23CC4CC(C2)C(F)(F)C(C4)C3)cc1F` it is 27 nM; for `CS(=O)(=O)NC(=O)c1cc(Cl)c(OCC23CC4CC(CC(Cl)(C4)C2)C3)cc1F` it is 53 nM.
Turning to `CC(C)(F)c1cc(C(=O)NS(=O)(=O)N2CCC2)c(F)cc1OCC12CC3CC(CC(C3)C1)C2`, the 50% inhibitory concentration (IC50) amounted to 36 nM.
On the same count and under the same terms, under `O=C(NS(=O)(=O)C1CC1)c1cc(Cl)c(OCC2CC3CC3C2)cc1F` (centres unmarked) [Example 266] stands 49 nM.
The same measure, in the same setting: under `CS(=O)(=O)NC(=O)c1cc(C2CC2)c(OCC2(F)C3CC4CC(C3)CC2C4)cc1F` (centres unmarked) stands 4 nM; under `CC(=O)c1cc(C(=O)NS(=O)(=O)N2CCC2)c(F)cc1OCC12CC3CC(CC(C3)C1)C2`, 60 nM.
Take `O=C(NS(=O)(=O)C1CC1)c1cc(Cl)c(OCC2CC3C(C2)C3(F)F)cc1F` (centres unmarked) [Example 322]: the IC50 was determined as 81 nM.
The same measure, in the same setting: the figure for `CNS(=O)(=O)NC(=O)c1cc(C2CC2)c(OCC2CCCCC2)cc1F` is 12 nM; for `CS(=O)(=O)NC(=O)c1ccc(OCCC23CC4CC(CC(C4)C2)C3)c(Cl)c1` it is 90 nM; for `CS(=O)(=O)NC(=O)c1ccc(C2C3CC4CC(C3)CC2C4)c(Cl)c1` (centres unmarked) [Example 180] it is 1200 nM.
As for `CS(=O)(=O)NC(=O)c1cc(C2CC2)c(COC2C3CC4CC(C3)CC2C4)cc1F` (centres unmarked), the IC50 was 5 nM.
Same read-out and setting: the figure for `CN(C)S(=O)(=O)NC(=O)c1cc(Cl)c(OCC23CC4CC(CC(F)(C4)C2)C3)cc1F` [Example 89, 5-chloro-N-(dimethylsulfamoyl)-2-fluoro-4-[(3-fluoro-1-adamantyl)methoxy]benzamide] is 234 nM; for `CN(C)S(=O)(=O)NC(=O)c1cc(Cl)c(OCC2(F)CCCCC2)cc1F` it is 1680 nM.
On the same count and under the same terms, under `CS(=O)(=O)NC(=O)c1ccc(OCC2CCC3(CC2)CC3)cc1F` stands 152 nM.
Still for that read-out and setting: the figure for `O=C(NS(=O)(=O)C1CC1)c1cc(C2CC2)c(OC[C@H]2CC[C@H](C(F)(F)F)CC2)cc1F` [Example 435, 5-cyclopropyl-N-(cyclopropylsulfonyl)-2-fluoro-4-(((1r,4r)-4-(trifluoromethyl)cyclohexyl)methoxy)benzamide] is 3 nM.
For `CNS(=O)(=O)NC(=O)c1cnc(OCC23CC4CC(CC(C4)C2)C3)c(C2CC2)c1` [Example 178], the IC50 worked out at 250 nM.
Same read-out and setting: the figure for `CS(=O)(=O)NC(=O)c1cc(C2CC2)c(OCC2(C#N)C3CC4CC(C3)CC2C4)cc1F` (centres unmarked) is 22 nM; for `CS(=O)(=O)NC(=O)c1cc(Cl)c(OCC2C3CC4CC(C3)CC2C4)cc1F` (centres unmarked) it is 17 nM.
For the compound `CS(=O)(=O)NC(=O)c1cc(Cl)c(O[C@@H]2C[C@@H]3CC[C@H]2C3)cc1F`, the IC50 was 167 nM.
The same measure, in the same setting: the figure for `O=C(NS(=O)(=O)N1CCC1)c1cc(Cl)c(OCC2(C(F)(F)F)CCCC2)cc1F` is 30 nM; for `O=C(NS(=O)(=O)N1CCC2(CC1)COC2)c1cc(C2CC2)c(OCC23CC4CC(CC(C4)C2)C3)cc1F` it is 630 nM; for `O=C(NS(=O)(=O)CCO)c1cc(C2CC2)c(OCC2CCCCC2)cc1F` it is 66 nM.
`CS(=O)(=O)NC(=O)c1cc(Cl)c(COC2C3CC4CC(C3)CC2C4)cc1F` (centres unmarked): the IC50 is 6 nM.
Take `COC12CC3CC(CC(COc4cc(F)c(C(=O)NS(C)(=O)=O)cc4Cl)(C3)C1)C2`: the IC50 worked out at 603 nM.
As to `CS(=O)(=O)NC(=O)c1cc(C2CC2)c(OC2CN(C(c3ccccc3)c3ccccc3)C2)cc1F` [Example 439, 4-(1-benzhydrylazetidin-3-yloxy)-5-cyclopropyl-2-fluoro-N-(methylsulfonyl)benzamide], the IC50 was 28 nM.
Take `CN(C)S(=O)(=O)NC(=O)c1cc(Cl)c(COc2ccc3c(c2)OC(C)(C)CC3)cc1F`: the IC50 was 190 nM.
The same measure, in the same setting: under `CN(C)S(=O)(=O)NC(=O)c1cc(Cl)c(OC2C3CC4CC(C3)CC2C4)cc1F` (centres unmarked) stands 190 nM; under `CS(=O)(=O)NC(=O)c1cc(F)c(OCC2CCCNC2)cc1F` (centres unmarked), 10000 nM.
Still for that read-out and setting: the figure for `CS(=O)(=O)NC(=O)c1cc(Cl)c(OC2C3CC4CC(C3)CC2C4)cc1F` (centres unmarked) [Example 9] is 40 nM.
Turning to `CS(=O)(=O)NC(=O)c1cc(Cl)c(OCCC2CCCC2)cc1F`, the IC50 turned out to be 140 nM.
Still for that read-out and setting: under `CNS(=O)(=O)NC(=O)c1ccc(C2C3CC4CC(C3)CC2C4)c(Cl)c1` (centres unmarked) stands 1700 nM; under `CS(=O)(=O)NC(=O)c1cc(Cl)c(COc2ccc3c(c2)CCCC3)cc1F`, 86 nM.
Consider `CN(C)S(=O)(=O)NC(=O)c1cc(Cl)c(OCCCC2CCCCC2)cc1F`, for which the IC50 came out at 295 nM.
On the same count and under the same terms, the figure for `CN(C)S(=O)(=O)NC(=O)c1cc(Cl)c(O[C@@H]2C[C@@H]3CC[C@@]2(C)C3(C)C)cc1F` is 230 nM; for `CS(=O)(=O)NC(=O)c1ccc(OCC23CC4CC(CC(C4)C2)C3)c(C2CCC2)c1` it is 9 nM.
On the same count and under the same terms, the figure for `CNS(=O)(=O)NC(=O)c1cc(Cl)c(COc2ccc3c(c2)CCC(C)(C)C3)cc1F` is 65 nM.
As for `CC1(C)[C@H]2CC[C@](C)(C2)[C@H]1Oc1cc(F)c(C(=O)NS(C)(=O)=O)cc1Cl`, the IC50 is 7120 nM.
Same read-out and setting: under `CNS(=O)(=O)NC(=O)c1cc(Cl)c(COc2ccc3c(c2)CC(C)(C)CC3)cc1F` stands 26 nM.
Still for that read-out and setting: under `CCCCCC12CCC(COc3cc(F)c(C(=O)NS(=O)(=O)N(C)C)cc3Cl)(CC1)CC2` stands 33 nM.
Still for that read-out and setting: the figure for `O=C(NS(=O)(=O)N1CCC1)c1cc(I)c(OCC23CC4CC(CC(C4)C2)C3)cc1F` [Example 222] is 9 nM; for `CN(C)S(=O)(=O)NC(=O)c1cc(Cl)c(OCC2CCC3(CC2)CC3)cc1F` [Example 88, 5-chloro-N-(dimethylsulfamoyl)-2-fluoro-4-(spiro[2.5]octan-6-ylmethoxy)benzamide] it is 121 nM; for `O=C(NS(=O)(=O)N1CC(F)C1)c1cc(C2CC2)c(OCC2CCCCC2)cc1F` [Example 210] it is 8 nM.
With `CS(=O)(=O)NC(=O)c1cc(Cl)c(OCC2CCCCCC2)cc1F`, the IC50 is 44 nM.
For `CS(=O)(=O)NC(=O)c1ccc(OCC23CC4CC(CC(F)(C4)C2)C3)cc1F`, the IC50 is 1640 nM.
On the same count and under the same terms, the figure for `CC1(C)C(COc2cc(F)c(C(=O)NS(C)(=O)=O)cc2Cl)C1(C)C` is 94 nM.
On to `CS(=O)(=O)NC(=O)c1cc(Cl)c(OCC2(F)C3CC4CC(C3)CC2C4)cc1F` (centres unmarked) [Example 176], for which the 50% inhibitory concentration (IC50) came to 50 nM.
On the same count and under the same terms, under `CC1(C)[C@H]2CC[C@@H](COc3cc(F)c(C(=O)NS(C)(=O)=O)cc3Cl)[C@@H]1C2` stands 44 nM.
The same measure, in the same setting: the figure for `CN(C)S(=O)(=O)NC(=O)c1cc(Cl)c(OC2C3CC4CC2CC(Cl)(C4)C3)cc1F` (centres unmarked) is 419 nM; for `CC(C)(C)S(=O)(=O)NC(=O)c1cc(C2CC2)c(OCC23CC4CC(CC(C4)C2)C3)cc1F` it is 3 nM; for `O=C(NS(=O)(=O)N1CCC1)c1cc(C2CC2)c(OCC2CCCC2)cc1F` it is 36 nM.
Turning to `CNS(=O)(=O)NC(=O)c1cc(Cl)c(COc2ccc3c(c2)CCC(C)(C)O3)cc1F`, the IC50 was 170 nM.
Still for that read-out and setting: the figure for `CNS(=O)(=O)NC(=O)c1cc(Cl)c(OCC2(C#N)C3CC4CC(C3)CC2C4)cc1F` (centres unmarked) is 880 nM.

Staying with this experiment, now noted: read-out: NaV1.7 395 Memb Binding (IC50).
As to `CS(=O)(=O)NC(=O)c1ccc(C(O)C2C3CC4CC(C3)CC2C4)c(Cl)c1` (centres unmarked), the IC50 turned out to be 1200 nM.
The same measure, in the same setting: the figure for “5-cyclopropyl-4-((4,4-difluorocyclohexyl)methoxy)-2-fluoro-N-(N-methylsulfamoyl)benzamide [Example 214]” is 900 nM; for `CS(=O)(=O)NC(=O)c1cc(F)c(OCC2CCCO2)cc1F` (centres unmarked) it is 10000 nM.
